Assay results published in patent publication US20260176285A1, “SALT OF DIOXANE QUINOLINE COMPOUND, CRYSTAL FORM THEREOF, PREPARATION METHODS THEREFOR AND USES THEREOF” (Beijing Scitech-MQ Pharmaceuticals Limited, priority 2022, published 2026).

How the values were obtained:
[1] = Dynamic solubility in water, SGF, FaSSIF and FeSSIF; assay type: physicochemical; design: S (dynamic solubility): unit not given here; conditions: listed as p-Toluenesulfonate salt crystal form A-II; for S (dynamic solubility): 37° C., feed 10 mg/mL
Summary of the method: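 Free form and salt crystal forms tested over time in water, SGF (pH 1.8), FaSSIF (pH 6.5) and FeSSIF (pH 5.0), simulated fluids made with SIF powder. At each time point samples were centrifuged, passed through 0.45 μm PTFE, and filtrate concentration (HPLC) and pH measured.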

[2] = Hygroscopicity by dynamic moisture sorption (DVS); assay type: physicochemical; conditions: DVS, listed as p-Toluenesulfonate salt crystal form A-II
Summary of the method: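 Mass change of salt and free-form crystal samples recorded at 25° C over a 0% RH-95% RH-0% RH cycle. Steps were 10% RH (last step 5%) with a dm/dt equilibrium criterion of 0.002%/min.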

[3] = Solid-state stability evaluation (XRPD, HPLC); assay type: physicochemical; conditions: for Purity / Purity/initial purity: listed as p-Toluenesulfonate salt crystal form A-II
Protocol: The following 6 test samples were placed under 25° C./60% RH and 40° C./75% RH conditions for 1 week, and then the physical and chemical stability of the samples was tested by XRPD and HPLC.
At the same time, after the p-toluenesulfonate salt crystal form A-II and crystal form B-III solids were placed at 80° C. for 24 hours, the physical and chemical stability of the samples were tested by XRPD and HPLC.

[4] = test system: human lung cancer cells EBC-1; assay: Efficacy in nude mouse tumor-bearing model of human lung cancer cells EBC-1; assay type: in vivo, Balb/c nude mouse
Text: In this assay, the free compound of formula (I) of the present application and different salts of the compound prepared in Examples 1, 2 and 5 were orally administered to a nude mouse tumor-bearing model of human lung cancer cells EBC-1 to study their effects on tumor growth.
Preparation of test compounds: an appropriate weight of the test compound (including the free form of the compound of formula (I) and different salts of the compound prepared in Examples 1, 2 and 5) was weighed, completely suspended/dissolved in an appropriate volume of 0.1% sodium carboxymethyl cellulose, stirred and vortexed to give a uniform solution or suspension.
Methods: All assays were authorized by the Animal Welfare Committee. EBC-1 in the logarithmic growth phase was inoculated into immune-deficient nude mice (BALB/c nude, female, 6-8 weeks old, weighing 18±2 g), subcutaneously on the right back, with a cell inoculation amount of 5×10^6/mouse. After the tumor grew to 150-200 mm^3, the animals were randomly divided into groups, 6 mice per group. The dose of each test substance was set at 15 mg/kg and 7.5 mg/kg (both based on the concentration of the effective formula (I) compound), and administered once a day for about 3 weeks. The test compounds were freshly prepared each day before use. During the assay, the tumor diameter was measured twice a week, and the mice were weighed at the same time. The calculation formula of tumor volume (TV) is: TV=1/2×a×b^2, where a and b represent length and width, respectively. The relative tumor volume (RTV) was calculated based on the measurement results, and the calculation formula is: RTV=Vt/V0, wherein V0 is the tumor volume measured at the time of cage grouping and dosing initiation (i.e., d0), and Vt is the tumor volume at each measurement. The evaluation index of antitumor activity is the relative tumor proliferation rate T/C (%), calculated as follows: T/C (%)=(TRTV/CRTV)×100%, TRTV: RTV of the treatment group; CRTV: RTV of the negative control group. T and C represent the average tumor volume at a certain time point in the drug administration group and the control group, respectively.

## O=C(Nc1ccc(F)cc1)C1(C(=O)Nc2ccc(Oc3ccnc4cc(OCCCN5CCOCC5)c5c(c34)OCCO5)c(F)c2)CC1 [Example 2, N-(3-fluoro-4-((5-(3-morpholinopropoxy)-2,3-dihydro-[1,4]dioxano[2,3-f]quinolin-10-yl)oxy)phenyl)-N-(4-fluorophenyl)cyclopropane-1,1-dicarboxamide]
[1]; FaSSIF, 1 hour
  S (dynamic solubility): 0.073
  pH of the filtrate: 6.1
[1]; FaSSIF, 2 hours
  S (dynamic solubility): 0.066
  pH of the filtrate: 6.1
[1]; FaSSIF, 4 hours
  S (dynamic solubility): 0.059
  pH of the filtrate: 6.1
[1]; FaSSIF, 24 hours
  S (dynamic solubility): 0.072
  pH of the filtrate: 5.1
[1]; FeSSIF, 1 hour
  S (dynamic solubility): 1.8
  pH of the filtrate: 5.0
[1]; FeSSIF, 2 hours
  S (dynamic solubility): 2.0
  pH of the filtrate: 5.0
[1]; FeSSIF, 4 hours
  S (dynamic solubility): 1.5
  pH of the filtrate: 5.0
[1]; FeSSIF, 24 hours
  S (dynamic solubility): 0.84
  pH of the filtrate: 5.0
[1]; H2O, 1 hour
  S (dynamic solubility): 2.7
  pH of the filtrate: 4.8
[1]; H2O, 2 hours
  S (dynamic solubility): 2.7
  pH of the filtrate: 4.9
[1]; H2O, 4 hours
  S (dynamic solubility): 2.8
  pH of the filtrate: 4.7
[1]; H2O, 24 hours
  S (dynamic solubility): 2.5
  pH of the filtrate: 4.2
[1]; SGF, 1 hour
  S (dynamic solubility): 6.8
  pH of the filtrate: 2.3
[1]; SGF, 2 hours
  S (dynamic solubility): completely dissolved
[1]; SGF, 4 hours
  S (dynamic solubility): completely dissolved
[1]; SGF, 24 hours
  S (dynamic solubility): 6.3
  pH of the filtrate: 2.3
[2]; 25° C./80% RH
  Moisture adsorption (25° C./80% RH): 0.52%
[2]; 25° C.
  Hygroscopicity: Slightly
[3]; 25° C./60% RH, 1 week
  Purity: 99.52 area %
  Purity/initial purity: 100.1%
[3]; 40° C./75% RH, 1 week
  Purity/initial purity: 100.0%
[3]; 80° C., 24 hours
  Change of Crystal form: no
  Purity: 99.42 area %
[4]; 7.5 mg/kg oral once a day, day 7
  T/C (relative tumor proliferation rate): 61.3%
[4]; 7.5 mg/kg oral once a day, day 10
  T/C (relative tumor proliferation rate): 47.4%
[4]; 7.5 mg/kg oral once a day, day 14
  T/C (relative tumor proliferation rate): 40.3%
[4]; 7.5 mg/kg oral once a day, day 18
  T/C (relative tumor proliferation rate): 37.7%
[4]; 7.5 mg/kg oral once a day, day 21
  T/C (relative tumor proliferation rate): 33.1%
[4]; 15 mg/kg oral once a day, day 3
  T/C (relative tumor proliferation rate): 67.9%
[4]; 15 mg/kg oral once a day, day 7
  T/C (relative tumor proliferation rate): 37.3%
[4]; 15 mg/kg oral once a day, day 10
  T/C (relative tumor proliferation rate): 25.4%
[4]; 15 mg/kg oral once a day, day 14
  T/C (relative tumor proliferation rate): 17.5%
[4]; 15 mg/kg oral once a day, day 18
  T/C (relative tumor proliferation rate): 16.0%
[4]; 15 mg/kg oral once a day, day 21
  T/C (relative tumor proliferation rate): 12.09%
